The values below come from ChEMBL document CHEMBL1909046, “DrugMatrix in vitro pharmacology data”.

The target in assay [1] is T1, Progesterone receptor (Bos taurus, UniProt Q690N0).
T1 sequence (Q690N0 whole entry): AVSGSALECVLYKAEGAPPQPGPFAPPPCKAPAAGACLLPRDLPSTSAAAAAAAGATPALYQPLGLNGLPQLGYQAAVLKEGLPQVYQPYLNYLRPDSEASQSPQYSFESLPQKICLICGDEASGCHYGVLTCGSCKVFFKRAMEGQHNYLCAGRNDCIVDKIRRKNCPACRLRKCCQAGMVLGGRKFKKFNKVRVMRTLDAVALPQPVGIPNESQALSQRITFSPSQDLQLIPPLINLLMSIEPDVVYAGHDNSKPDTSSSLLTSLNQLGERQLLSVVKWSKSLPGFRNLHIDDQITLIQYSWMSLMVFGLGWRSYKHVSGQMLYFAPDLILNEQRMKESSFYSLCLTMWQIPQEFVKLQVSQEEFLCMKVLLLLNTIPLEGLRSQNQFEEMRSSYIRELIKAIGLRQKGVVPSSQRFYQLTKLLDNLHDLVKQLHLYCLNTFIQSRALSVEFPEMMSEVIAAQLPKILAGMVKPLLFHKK
In words: DRUGMATRIX: Progesterone radioligand binding (ligand: [3H] R-5020). It is filed as tissue-based, Uterus. The note with it: Not Active = under 50% inhibition at 10 µM.

Assay [2] addresses T2, Neuropeptide Y receptor type 1 (Homo sapiens, UniProt P25929).
T2 sequence (P25929 whole entry): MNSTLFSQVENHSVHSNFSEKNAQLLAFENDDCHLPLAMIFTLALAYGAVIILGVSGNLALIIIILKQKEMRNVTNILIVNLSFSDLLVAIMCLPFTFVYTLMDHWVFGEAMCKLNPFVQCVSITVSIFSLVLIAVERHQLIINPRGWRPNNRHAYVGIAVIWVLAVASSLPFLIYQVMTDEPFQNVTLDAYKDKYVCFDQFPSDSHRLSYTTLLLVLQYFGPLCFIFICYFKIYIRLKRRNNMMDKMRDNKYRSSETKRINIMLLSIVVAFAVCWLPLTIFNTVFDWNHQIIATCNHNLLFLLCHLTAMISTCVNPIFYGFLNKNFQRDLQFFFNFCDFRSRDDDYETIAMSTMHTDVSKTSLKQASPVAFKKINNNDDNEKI
It is filed as cell membranes, Membrane. The note with it: sk-n-mc.

Assay [3] concerns the target T3, Neuropeptide Y receptor type 2 (Homo sapiens, UniProt P49146). Also: in other assays of this panel Not Active means under 50% inhibition at 10 µM.
T3 sequence (P49146 whole entry): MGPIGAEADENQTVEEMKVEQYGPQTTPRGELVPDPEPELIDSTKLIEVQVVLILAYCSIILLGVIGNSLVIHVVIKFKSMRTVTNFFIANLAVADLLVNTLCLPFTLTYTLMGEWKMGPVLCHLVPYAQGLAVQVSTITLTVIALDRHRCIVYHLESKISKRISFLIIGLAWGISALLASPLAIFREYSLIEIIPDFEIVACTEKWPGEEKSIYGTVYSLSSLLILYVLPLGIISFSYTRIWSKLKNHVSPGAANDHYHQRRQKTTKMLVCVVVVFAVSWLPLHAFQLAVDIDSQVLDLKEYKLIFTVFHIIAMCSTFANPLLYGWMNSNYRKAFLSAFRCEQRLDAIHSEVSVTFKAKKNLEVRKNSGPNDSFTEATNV
It is filed as cell membranes, Membrane. The note with it: kan-ts.

In assay [4] the target is Beta-2 adrenergic receptor (Homo sapiens, UniProt P07550). In words: DRUGMATRIX: Adrenergic beta2 radioligand binding (ligand: [3H] CGP-12177). It is filed as cell membranes, CHO, Membrane. The note with it: Not Active = under 50% inhibition at 10 µM.
The target of assay [5] is Mitogen-activated protein kinase 1 (Homo sapiens, UniProt P28482). Description: DRUGMATRIX: Protein Serine/Threonine Kinase, ERK2 enzyme inhibition (substrate: Myelin Basic Protein). More on the design: species or system Escherichia coli. The note with it: Not Active = under 50% inhibition at 10 µM.
Assay [6] addresses Aldo-keto reductase family 1 member B1 (Rattus norvegicus, UniProt P07943). In words: biochemical. It is filed as tissue-based, Lens of camera-type eye.
Assay [7] addresses T4, Nitric oxide synthase, inducible (Mus musculus, UniProt P29477).
T4 sequence (P29477 whole entry): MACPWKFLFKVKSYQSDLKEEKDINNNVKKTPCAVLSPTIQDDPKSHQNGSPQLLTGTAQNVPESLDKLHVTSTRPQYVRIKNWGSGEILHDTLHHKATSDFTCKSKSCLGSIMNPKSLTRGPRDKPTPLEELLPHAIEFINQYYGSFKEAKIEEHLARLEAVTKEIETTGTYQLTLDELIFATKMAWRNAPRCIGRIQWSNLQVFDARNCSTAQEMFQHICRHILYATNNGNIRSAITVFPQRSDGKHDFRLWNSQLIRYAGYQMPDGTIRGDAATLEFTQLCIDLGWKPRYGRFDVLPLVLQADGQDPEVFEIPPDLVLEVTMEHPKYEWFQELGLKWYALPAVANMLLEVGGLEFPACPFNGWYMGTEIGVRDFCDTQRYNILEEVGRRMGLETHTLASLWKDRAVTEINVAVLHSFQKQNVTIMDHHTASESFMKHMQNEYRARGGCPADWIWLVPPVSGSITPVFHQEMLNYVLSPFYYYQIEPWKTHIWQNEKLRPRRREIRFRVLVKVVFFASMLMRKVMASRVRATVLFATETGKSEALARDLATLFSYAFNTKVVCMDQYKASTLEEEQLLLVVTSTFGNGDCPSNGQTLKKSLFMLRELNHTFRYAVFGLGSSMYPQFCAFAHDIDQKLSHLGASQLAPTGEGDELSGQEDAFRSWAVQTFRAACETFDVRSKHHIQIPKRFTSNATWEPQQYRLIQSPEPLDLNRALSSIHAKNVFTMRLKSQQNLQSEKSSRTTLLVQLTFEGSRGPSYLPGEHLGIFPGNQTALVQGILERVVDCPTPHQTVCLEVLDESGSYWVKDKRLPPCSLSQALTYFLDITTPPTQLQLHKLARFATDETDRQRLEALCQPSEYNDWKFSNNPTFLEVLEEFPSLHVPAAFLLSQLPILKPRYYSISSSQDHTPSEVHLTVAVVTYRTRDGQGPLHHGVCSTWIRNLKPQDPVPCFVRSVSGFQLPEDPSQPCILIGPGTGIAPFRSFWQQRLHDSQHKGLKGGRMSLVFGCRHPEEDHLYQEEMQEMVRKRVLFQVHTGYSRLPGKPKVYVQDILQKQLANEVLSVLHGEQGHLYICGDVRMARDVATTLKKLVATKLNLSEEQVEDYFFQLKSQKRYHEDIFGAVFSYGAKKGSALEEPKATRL
More on the design: species or system Escherichia coli.

Sequence of Mitogen-activated protein kinase 1 (P28482 whole entry): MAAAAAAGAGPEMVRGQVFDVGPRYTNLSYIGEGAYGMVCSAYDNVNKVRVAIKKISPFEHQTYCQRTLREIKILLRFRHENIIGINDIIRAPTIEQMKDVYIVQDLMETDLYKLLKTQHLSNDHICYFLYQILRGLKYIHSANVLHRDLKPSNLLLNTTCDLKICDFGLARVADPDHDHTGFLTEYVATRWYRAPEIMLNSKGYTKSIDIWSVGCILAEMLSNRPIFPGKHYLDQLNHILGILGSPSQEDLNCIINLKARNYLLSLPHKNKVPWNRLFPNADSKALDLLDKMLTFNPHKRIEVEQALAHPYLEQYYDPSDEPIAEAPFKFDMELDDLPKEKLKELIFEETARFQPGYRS
Sequence of Beta-2 adrenergic receptor (P07550 whole entry): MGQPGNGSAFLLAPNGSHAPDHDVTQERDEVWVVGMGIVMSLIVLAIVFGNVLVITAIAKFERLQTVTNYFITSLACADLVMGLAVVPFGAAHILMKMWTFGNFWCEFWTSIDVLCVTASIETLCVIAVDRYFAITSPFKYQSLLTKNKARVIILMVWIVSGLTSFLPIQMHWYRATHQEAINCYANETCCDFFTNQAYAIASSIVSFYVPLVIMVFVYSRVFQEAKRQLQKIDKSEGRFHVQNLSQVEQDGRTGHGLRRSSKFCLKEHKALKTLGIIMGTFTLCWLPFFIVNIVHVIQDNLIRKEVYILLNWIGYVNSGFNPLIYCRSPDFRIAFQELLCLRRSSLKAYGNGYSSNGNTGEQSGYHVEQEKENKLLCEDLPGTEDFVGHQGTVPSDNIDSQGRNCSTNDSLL

On to `CN(CCOc1ccc(CC2SC(=O)NC2=O)cc1)c1ccccn1` (configuration not stated) [ROSIGLITAZONE], for which the IC50 result in assay [1], in assay [2], in assay [3], in assay [4] (cho), in assay [5] and in assay [6] was “Not Active” in each case. Also, in assay [7], the IC50 entry is “Not Active”.
With `C=C(C)[C@H]1Cc2c(ccc3c2O[C@@H]2COc4cc(OC)c(OC)cc4[C@@H]2C3=O)O1` [ROTENONE], the IC50 result in assay [1], in assay [2], in assay [3], in assay [4] (cho), in assay [5] and in assay [6] was “Not Active” each time. For the same molecule, the IC50 result in assay [7] is recorded as “Not Active”.
As for `C#CCN(C)[C@H](C)Cc1ccccc1` [SELEGILINE], the IC50 result in assay [1], in assay [2], in assay [3], in assay [4] (cho), in assay [5] and in assay [6] was “Not Active” throughout. The IC50 result in assay [7] is “Not Active”.
Consider `CO[C@H]1C[C@@H]2CC[C@@H](C)[C@@](O)(O2)C(=O)C(=O)N2CCCC[C@H]2C(=O)O[C@H]([C@H](C)C[C@@H]2CC[C@@H](O)[C@H](OC)C2)CC(=O)[C@H](C)/C=C(\C)[C@@H](O)[C@@H](OC)C(=O)[C@H](C)C[C@H](C)/C=C/C=C/C=C/1C` [SIROLIMUS], for which the IC50 entry in assay [1], in assay [2], in assay [3], in assay [4] (cho), in assay [5] and in assay [6] was “Not Active” throughout. Moreover, the IC50 entry in assay [7] is recorded as “Not Active”.
As to `CN[C@@H]1[C@H](O)[C@H](NC)[C@H]2O[C@@]3(O)C(=O)C[C@@H](C)O[C@H]3O[C@@H]2[C@H]1O` [SPECTINOMYCIN], the IC50 entry in assay [1], in assay [2], in assay [3], in assay [4] (cho), in assay [5] and in assay [6] was “Not Active” throughout. Also, the IC50 result in assay [7] is listed as “Not Active”.
As to `Nc1ccc(S(=O)(=O)Nc2ncccn2)cc1` [SULFADIAZINE], the IC50 result in assay [1], in assay [2], in assay [3], in assay [4] (cho), in assay [5] and in assay [6] was “Not Active” each time. The IC50 result in assay [7] is “Not Active”.
Turning to `COc1ncnc(NS(=O)(=O)c2ccc(N)cc2)c1OC` [SULFADOXINE], the IC50 result in assay [1], in assay [2], in assay [3], in assay [4] (cho), in assay [5] and in assay [6] was “Not Active” each time. The IC50 result in assay [7] was “Not Active”.
Turning to `Nc1ccc(S(=O)(=O)Nc2nccs2)cc1` [SULFATHIAZOLE], the IC50 result in assay [1], in assay [2], in assay [3], in assay [4] (cho), in assay [5] and in assay [6] was “Not Active” throughout. Moreover, the IC50 entry in assay [7] was “Not Active”.
Consider `C[C@]12CC[C@H]3[C@@H](CCC4=CC(=O)CC[C@@]43C)[C@@H]1CC[C@@H]2O` [TESTOSTERONE], for which the IC50 in assay [1] (read-out: IC50) was 1.93 µM; in assay [2], “Not Active”; in assay [3], “Not Active”; in assay [4] (cho) it was “Not Active”; in assay [5], “Not Active”; in assay [6] it was “Not Active”. In addition, the IC50 entry in assay [7] was “Not Active”. Further, the Ki in assay [1] (read-out: Ki) stood at 0.252 µM.
As for `CCS(=O)(=O)CCn1c([N+](=O)[O-])cnc1C` [TINIDAZOLE], the IC50 entry in assay [1], in assay [2], in assay [3], in assay [4] (cho), in assay [5] and in assay [6] was “Not Active” throughout. Besides, the IC50 result in assay [7] was “Not Active”.
As for `C[C@@H]1C[C@H]2[C@@H]3CCC4=CC(=O)C=C[C@]4(C)C3=CC[C@]2(C)[C@H]1C(=O)CN1CCN(c2cc(N3CCCC3)nc(N3CCCC3)n2)CC1` [TIRILAZAD], the IC50 entry in assay [1] was “Not Active”; in assay [2] it was “Not Active”; in assay [3] it was “Not Active”; in assay [4] (read-out: IC50), 22.7 µM; in assay [5] it was “Not Active”; in assay [6], “Not Active”. Further, the concentration for half-maximal inhibition (IC50) entry in assay [7] is on record as “Not Active”. Besides, the inhibition constant (Ki) in assay [4] (read-out: Ki) came to 15.6 µM.
For `NC[C@H]1O[C@H](O[C@H]2[C@H](O)[C@@H](O[C@H]3O[C@H](CO)[C@@H](O)[C@H](N)[C@H]3O)[C@H](N)C[C@@H]2N)[C@H](N)C[C@@H]1O` [TOBRAMYCIN], the IC50 entry in assay [1], in assay [2], in assay [3], in assay [4] (cho), in assay [5] and in assay [6] was “Not Active” throughout. Also, the IC50 result in assay [7] is “Not Active”.
With `O=c1n(CCCN2CCN(c3cccc(Cl)c3)CC2)nc2ccccn12` [TRAZODONE], the 50% inhibitory concentration (IC50) entry in assay [1], in assay [2], in assay [3], in assay [4] (cho), in assay [5] and in assay [6] was “Not Active” throughout. Moreover, the IC50 result in assay [7] is reported as “Not Active”.
With `O=C(O)C(Cl)(Cl)Cl` [TRICHLOROACETIC ACID], the IC50 entry in assay [1], in assay [2], in assay [3], in assay [4] (cho), in assay [5] and in assay [6] was “Not Active” each time. Moreover, the IC50 result in assay [7] was “Not Active”.
For the molecule `COc1ccc(CN2CCNCC2)c(OC)c1OC` [TRIMETAZIDINE], the IC50 entry in assay [1], in assay [2], in assay [3], in assay [4] (cho), in assay [5] and in assay [6] was “Not Active” throughout. For the same molecule, the concentration for half-maximal inhibition (IC50) result in assay [7] is on record as “Not Active”.
